{"source": "patent EP3957364A1", "about": "“A BINDING MOLECULE SPECIFICALLY BINDING TO HUMAN CD4 FOR USE IN THE TREATMENT OF PULMONARY DISEASES” (Fraunhofer-Gesellschaft zur Förderung der angewandten …, priority 2020, dated 2022)", "origin": "cited, not measured here", "biological_target": "CD4 (Homo sapiens, UniProt P01730)", "conditions": "reported, no source named", "data": [{"substance": "TbYICbEbVEDQKAcEE", "values": [{"measurement": "inhibition of CD4 binding of gp120 and MAX.16H5 IgG1 (or 16H5.chimlgG4)", "value": "inhibit CD4 binding of both gp120 and MAX.16H5 IgG1"}]}]}
